Experimental data: patent US20190116791A1, “USE OF SAFENERS WITH PPO INHIBITOR HERBICIDES” (priority 2016, published 2019)
Where “and” joins values, the source holds several entries; their conditions need not be identical. Identical values can stand only once.

Experiments:
[1] = test system: wheat specie “Yellowstone”; test: Percent wheat injury, visual rating 0-100%, greenhouse, post-emergence spray; conditions: for Percent wheat injury, YELLOWSTONE (1) 3 DAT / Percent wheat injury, YELLOWSTONE (1) 7 DAT / Percent wheat injury, YELLOWSTONE (1) 14 DAT: Table 7 Test 1; for Percent wheat injury, YELLOWSTONE (1) 3 DAT / Percent wheat injury, YELLOWSTONE (1) 7 DAT / Percent wheat injury, YELLOWSTONE (1) 14 DAT / Percent wheat injury, YELLOWSTONE (2) 3 DAT / Percent wheat injury, YELLOWSTONE (2) 7 DAT / Percent wheat injury, YELLOWSTONE (2) 14 DAT: tank-mix; for Percent wheat injury, YELLOWSTONE (2) 3 DAT / Percent wheat injury, YELLOWSTONE (2) 7 DAT / Percent wheat injury, YELLOWSTONE (2) 14 DAT: Table 7 Test 2; for Percent wheat injury 3 DAT / Percent wheat injury 7 DAT / Percent wheat injury 14 DAT / Injury: Yellowstone; for Injury / Percent injury on wheat, Yellowstone 3 DAT / Percent injury on wheat, Yellowstone 7 DAT / Percent injury on wheat, Yellowstone 14 DAT: Table 4; for Injury: time not stated
wheat variety “Jagger” = test: as above; conditions: for Percent wheat injury, JAGGER 3 DAT / Percent wheat injury, JAGGER 7 DAT / Percent wheat injury, JAGGER 14 DAT: Table 7 Test 1, tank-mix; for Injury / Percent injury on wheat, Jagger 3 DAT / Percent injury on wheat, Jagger 7 DAT / Percent injury on wheat, Jagger 14 DAT: Table 4; for Injury: Jagger, time not stated
Morningglory = test: Percent weed control, 0 to 100% rating system; format: in vivo; conditions: Table 6
Protocol: (§1) Percent weed control was determined by a method similar to the 0 to 100% rating system as described above and reproduced below for easy reference. The same weed control rating system also can be found such as in “Research Methods in Weed Science,” 2nd ed., B. Truelove, Ed.; Southern Weed Science Society; Auburn University, Auburn, Ala., 1977.

Velvetleaf = test: Percent weed control, 0 to 100% rating system; format: in vivo; conditions: Table 6
Protocol: as §1

[2] = fluthiacet-methyl 5.6 g ai/ha, 3 DAT
[3] = fluthiacet-methyl 11.2 g ai/ha, 3 DAT
[4] = Table 2, carfentrazone-ethyl 25 g ai/ha
[5] = Table 3, carfentrazone-ethyl 50 g ai/ha
[6] = carfentrazone-ethyl at 50 g, safened treatment as tank-mix or premix

SMILES: COC(=O)CSc1cc(/N=c2\sc(=O)n3n2CCCC3)c(F)cc1Cl [F-M, fluthiacet-methyl]
- Percent wheat injury, YELLOWSTONE (1) 3 DAT [1, 2]: 12%
- Percent wheat injury, YELLOWSTONE (1) 7 DAT ([1]; fluthiacet-methyl 5.6 g ai/ha): 12%
- Percent wheat injury, YELLOWSTONE (1) 14 DAT ([1]; fluthiacet-methyl 5.6 g ai/ha): 12%
- Percent wheat injury, YELLOWSTONE (1) 3 DAT [1, 3]: 36%
- Percent wheat injury, YELLOWSTONE (1) 7 DAT ([1]; fluthiacet-methyl 11.2 g ai/ha): 34%
- Percent wheat injury, YELLOWSTONE (1) 14 DAT ([1]; fluthiacet-methyl 11.2 g ai/ha): 34%
- Percent wheat injury, YELLOWSTONE (2) 3 DAT [1, 2]: 16%
- Percent wheat injury, YELLOWSTONE (2) 7 DAT ([1]; fluthiacet-methyl 5.6 g ai/ha): 11%
- Percent wheat injury, YELLOWSTONE (2) 14 DAT ([1]; fluthiacet-methyl 5.6 g ai/ha): 12%
- Percent wheat injury, YELLOWSTONE (2) 3 DAT [1, 3]: 40%
- Percent wheat injury, YELLOWSTONE (2) 7 DAT ([1]; fluthiacet-methyl 11.2 g ai/ha): 36%
- Percent wheat injury, YELLOWSTONE (2) 14 DAT ([1]; fluthiacet-methyl 11.2 g ai/ha): 25%
- Percent wheat injury, JAGGER 3 DAT (wheat variety “Jagger”; fluthiacet-methyl 5.6 g ai/ha): 6%
- Percent wheat injury, JAGGER 7 DAT (wheat variety “Jagger”; fluthiacet-methyl 5.6 g ai/ha): 8%
- Percent wheat injury, JAGGER 14 DAT (wheat variety “Jagger”; fluthiacet-methyl 5.6 g ai/ha): 10%
- Percent wheat injury, JAGGER 3 DAT (wheat variety “Jagger”; fluthiacet-methyl 11.2 g ai/ha): 35%
- Percent wheat injury, JAGGER 7 DAT (wheat variety “Jagger”; fluthiacet-methyl 11.2 g ai/ha): 35%
- Percent wheat injury, JAGGER 14 DAT (wheat variety “Jagger”; fluthiacet-methyl 11.2 g ai/ha): 19%

SMILES: O=C1OC(=O)c2cccc3cccc1c23 [naphthalic anhydride]
- wheat injury in the presence of safener(s) ([1]; text on Tables 2 and 3, safener applied with carfentrazone-ethyl, regardless of rate (25 or 50 g), 3 DAT): greater than 25%

SMILES: CCOC(=O)C(Cl)Cc1cc(-n2nc(C)n(C(F)F)c2=O)c(F)cc1Cl (centres unmarked) [Carfentrazone-ethyl, carfentrazone-ethyl]
- Percent wheat injury 3 DAT ([1]; Table 2, carfentrazone-ethyl 25 g ai/ha, 3 DAT): 34% and 34 (A) %
- Percent wheat injury 3 DAT ([1]; Table 2, carfentrazone-ethyl 25 g ai/ha, 3 DAT, listed as carfentrazone-ethyl): 34%
- Percent wheat injury 7 DAT [1, 4]: 28 (A) %
- Percent wheat injury 14 DAT [1, 4]: 15 (A) %
- Percent wheat injury 3 DAT ([1]; Table 3, carfentrazone-ethyl 50 g ai/ha, 3 DAT): 43% and 43 (A) %
- Percent wheat injury 7 DAT [1, 5]: 36 (A) %
- Percent wheat injury 14 DAT [1, 5]: 20 (A) %
- Injury ([1]; carfentrazone-ethyl at 25 g): > 35%
- Injury [1, 6]: > 40%
- Percent injury on wheat, Yellowstone 3 DAT ([1]; carfentrazone-ethyl 25 g ai/ha, 3 DAT): 38%
- Percent injury on wheat, Yellowstone 7 DAT ([1]; carfentrazone-ethyl 25 g ai/ha): 34%
- Percent injury on wheat, Yellowstone 14 DAT ([1]; carfentrazone-ethyl 25 g ai/ha): 24%
- Percent injury on wheat, Yellowstone 3 DAT ([1]; carfentrazone-ethyl 50 g ai/ha, 3 DAT): 44%
- Percent injury on wheat, Yellowstone 7 DAT ([1]; carfentrazone-ethyl 50 g ai/ha): 39%
- Percent injury on wheat, Yellowstone 14 DAT ([1]; carfentrazone-ethyl 50 g ai/ha): 28%
- Injury (wheat variety “Jagger”; carfentrazone-ethyl at 25 g): > 35%
- Injury (wheat variety “Jagger”; [6]): > 40%
- Percent injury on wheat, Jagger 3 DAT (wheat variety “Jagger”; carfentrazone-ethyl 25 g ai/ha): 36%
- Percent injury on wheat, Jagger 7 DAT (wheat variety “Jagger”; carfentrazone-ethyl 25 g ai/ha): 34%
- Percent injury on wheat, Jagger 14 DAT (wheat variety “Jagger”; carfentrazone-ethyl 25 g ai/ha): 25%
- Percent injury on wheat, Jagger 3 DAT (wheat variety “Jagger”; carfentrazone-ethyl 50 g ai/ha): 43%
- Percent injury on wheat, Jagger 7 DAT (wheat variety “Jagger”; carfentrazone-ethyl 50 g ai/ha): 38%
- Percent injury on wheat, Jagger 14 DAT (wheat variety “Jagger”; carfentrazone-ethyl 50 g ai/ha): 30%
- Percent weed control, Morningglory 3 DAT (Morningglory; carfentrazone-ethyl 25 g ai/ha): 90 (A) %
- Percent weed control, Morningglory 7 DAT (Morningglory; carfentrazone-ethyl 25 g ai/ha): 100 (A) %
- Percent weed control, Morningglory 3 DAT (Morningglory; carfentrazone-ethyl 50 g ai/ha): 90 (A) %
- Percent weed control, Morningglory 7 DAT (Morningglory; carfentrazone-ethyl 50 g ai/ha): 100 (A) %
- Percent weed control, Velvetleaf 3 DAT (Velvetleaf; carfentrazone-ethyl 25 g ai/ha): 90 (A) %
- Percent weed control, Velvetleaf 7 DAT (Velvetleaf; carfentrazone-ethyl 25 g ai/ha): 100%
- Percent weed control, Velvetleaf 3 DAT (Velvetleaf; carfentrazone-ethyl 50 g ai/ha): 90 (A) %
- Percent weed control, Velvetleaf 7 DAT (Velvetleaf; carfentrazone-ethyl 50 g ai/ha): 100%
